{"source": "patent EP0973746B1", "about": "“SUBSTITUTED 3-CYANO QUINOLINES” (Wyeth Holdings Corporation, priority 1997, dated 1998)", "key": {"A431 [1]": {"test_system": "A431", "assay": "Inhibition of cell growth by incorporation of [3H]-thymidine, A431", "type": "cell-based, human", "conditions": "Homo sapiens, A-431; [3H]-thymidine incorporation; A431; read-out: IC50 A431"}, "NEU-3T3": {"test_system": "NEU-3T3", "assay": "Inhibition of cell growth by incorporation of [3H]-thymidine, Neu-3T3", "type": "cell-based, mouse", "conditions": "Mus musculus, [3H]-thymidine incorporation", "protocol": "(§1) Representative compounds of this invention were evaluated for their ability to inhibit the growth of the cell lines described below in vitro. The inhibition is quantitated by measuring the decrease in the incorporation of radio-labeled thymidine when the cells are grown in the presence of the inhibitor. […] Cells were routinely grown in a humidified incubator in 5% CO2 in air.\n(§2) Cells were seeded at 10,000 cells/well in 96 well plates in complete media and allowed to grow to log phase. At this stage the complete media was replaced with media containing 0.5% FBS (for cells growing in 10% FBS) or media lacking epidermal growth factor (EGF) (for cells growing in serum free media). […] Media with test compound was then removed and complete media was added back. The cells were allowed to grow for 18 hours. This is followed by incubation in [^3H]thymidine (1mCi/ml in serum/EGF media) for 4 hours. Cells were lysed in 0.5 M NaOH for at least 30 min at 37°C and radioactivity analyzed.\n(§3) The % inhibition of the compound evaluated was determined for at least three different concentrations and the IC50 value evaluated from the dose response curve. […] CPM(control) is in units of counts per minute and is a number expressing the amount of [^3H]thymidine incorporated onto the DNA when cells are grown in the absence of test compound as measured by liquid scintillation counting."}, "NHEK": {"test_system": "NHEK", "assay": "Inhibition of cell growth by incorporation of [3H]-thymidine, NHEK", "type": "cell-based, human", "conditions": "Homo sapiens, [3H]-thymidine incorporation, read-out: IC50 NHEK", "protocol": "as §1, §2, §3"}, "SKBR3": {"test_system": "SKBR3", "assay": "Inhibition of cell growth by incorporation of [3H]-thymidine, SKBR3", "type": "cell-based, human", "conditions": "Homo sapiens, SK-BR-3, [3H]-thymidine incorporation", "protocol": "as §1, §2, §3"}, "HTB161": {"test_system": "HTB161", "assay": "Inhibition of cancer cell growth as measured by cell number, HTB161", "type": "cell-based", "conditions": "Homo sapiens; cell number, Sulforhodamine B, 48 hours exposure; Table 4; read-out: IC50 HTB161"}, "A27805": {"test_system": "A27805", "assay": "Inhibition of cancer cell growth as measured by cell number, A27805", "type": "cell-based", "conditions": "Homo sapiens; cell number, Sulforhodamine B, 48 hours exposure; Table 4; read-out: IC50 A27805"}, "A2780DDP": {"test_system": "A2780DDP", "assay": "Inhibition of cancer cell growth as measured by cell number, A2780DDP", "type": "cell-based", "conditions": "Homo sapiens; cell number, Sulforhodamine B, 48 hours exposure; Table 4; read-out: IC50 A2780DDP"}, "MIP": {"test_system": "MIP", "assay": "Inhibition of cancer cell growth as measured by cell number, MIP", "type": "cell-based", "conditions": "Homo sapiens; cell number, Sulforhodamine B, 48 hours exposure; Table 4; read-out: IC50 MIP"}, "SW620": {"test_system": "SW620", "assay": "Inhibition of cancer cell growth as measured by cell number, SW620;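 note: SW620 was included as a cell line with little or no EGFR or HER2/neu expression, in contrast to receptor-overexpressing lines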", "type": "cell-based, human", "conditions": "Homo sapiens, SW-620, 48 h, cell number, Sulforhodamine B, 48 hours exposure; Table 4; read-out: IC50 SW620", "description": "(§4) The cell lines were chosen since they overexpressed epidermal growth factor receptor (EGFR) (i.e. A431) or HER2/neu (SKBR3), or had little to no expression of the these receptors (SW620, LOX, MCF7)."}, "COLO205": {"test_system": "COLO205", "assay": "Inhibition of cancer cell growth as measured by cell number, COLO205", "type": "cell-based", "conditions": "Homo sapiens, COLO 205; cell number, Sulforhodamine B, 48 hours exposure; Table 4; read-out: IC50 COLO205"}, "CX1": {"test_system": "CX1", "assay": "Inhibition of cancer cell growth as measured by cell number, CX1", "type": "cell-based", "conditions": "Homo sapiens, CX-1; cell number, Sulforhodamine B, 48 hours exposure; Table 4; read-out: IC50 CX1"}, "CACO2": {"test_system": "CACO2", "assay": "Inhibition of cancer cell growth as measured by cell number, CACO2", "type": "cell-based", "conditions": "Homo sapiens, Caco-2; cell number, Sulforhodamine B, 48 hours exposure; Table 5; read-out: IC50 CACO2"}, "HCT15": {"test_system": "HCT15", "assay": "Inhibition of cancer cell growth as measured by cell number, HCT15", "type": "cell-based", "conditions": "Homo sapiens, HCT-15; cell number, Sulforhodamine B, 48 hours exposure; Table 5; read-out: IC50 HCT15"}, "LS174T": {"test_system": "LS174T", "assay": "Inhibition of cancer cell growth as measured by cell number, LS174T", "type": "cell-based", "conditions": "Homo sapiens, cell number, Sulforhodamine B, 48 hours exposure, Table 5, read-out: IC50 LS174T"}, "SW948": {"test_system": "SW948", "assay": "Inhibition of cancer cell growth as measured by cell number, SW948", "type": "cell-based", "conditions": "Homo sapiens, SW948; cell number, Sulforhodamine B, 48 hours exposure; Table 5; read-out: IC50 SW948"}, "CCL228": {"test_system": "CCL228", "assay": "Inhibition of cancer cell growth as measured by cell number, CCL228", "type": "cell-based", "conditions": "Homo sapiens; cell number, Sulforhodamine B, 48 hours exposure; Table 5; read-out: IC50 CCL228"}, "B7474": {"test_system": "B7474", "assay": "Inhibition of cancer cell growth as measured by cell number, B7474", "type": "cell-based", "conditions": "Homo sapiens; cell number, Sulforhodamine B, 48 hours exposure; Table 6; read-out: IC50 B7474"}, "T47D": {"test_system": "T47D", "assay": "Inhibition of cancer cell growth as measured by cell number, T47D", "type": "cell-based", "conditions": "Homo sapiens, cell number, Sulforhodamine B, 48 hours exposure, Table 6, read-out: IC50 T47D"}, "LX1": {"test_system": "LX1", "assay": "Inhibition of cancer cell growth as measured by cell number, LX1", "type": "cell-based", "conditions": "Homo sapiens, LX-1; cell number, Sulforhodamine B, 48 hours exposure; Table 6; read-out: IC50 LX1"}, "A549": {"test_system": "A549", "assay": "Inhibition of cancer cell growth as measured by cell number, A549", "type": "cell-based", "conditions": "Homo sapiens, A549; cell number, Sulforhodamine B, 48 hours exposure; Table 6; read-out: IC50 A549"}, "LOX": {"test_system": "LOX", "assay": "Inhibition of cancer cell growth as measured by cell number, LOX;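 note: LOX cells served as a line with low or absent EGFR and HER2/neu expression, in contrast to receptor-overexpressing lines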", "type": "cell-based, human", "conditions": "Homo sapiens, LOX, 48 h, cell number, Sulforhodamine B, 48 hours exposure; Table 6; read-out: IC50 LOX", "description": "as §4"}, "A431 [2]": {"test_system": "A431", "assay": "Inhibition of cancer cell growth as measured by cell number, A431;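 note: human A431 line, picked because it overexpresses epidermal growth factor receptor (EGFR)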", "type": "cell-based, human", "conditions": "Homo sapiens, A-431, 48 h, cell number, Sulforhodamine B, 48 hours exposure; Table 6; read-out: IC50 A431", "description": "as §4"}, "NEC": {"test_system": "NEC", "assay": "Inhibition of cancer cell growth as measured by cell number, NEC", "type": "cell-based", "conditions": "Homo sapiens; cell number, Sulforhodamine B, 48 hours exposure; Table 6; read-out: IC50 NEC"}, "DU145": {"test_system": "DU145", "assay": "Inhibition of cancer cell growth as measured by cell number, DU145", "type": "cell-based", "conditions": "Homo sapiens, DU-145; cell number, Sulforhodamine B, 48 hours exposure; Table 7; read-out: IC50 DU145"}, "PC3": {"test_system": "PC3", "assay": "Inhibition of cancer cell growth as measured by cell number, PC3", "type": "cell-based", "conditions": "Homo sapiens, PC-3; cell number, Sulforhodamine B, 48 hours exposure; Table 7; read-out: IC50 PC3"}, "LNCAP": {"test_system": "LNCAP", "assay": "Inhibition of cancer cell growth as measured by cell number, LNCAP", "type": "cell-based", "conditions": "Homo sapiens, cell number, Sulforhodamine B, 48 hours exposure, Table 7, read-out: IC50 LNCAP"}, "HL60": {"test_system": "HL60", "assay": "Inhibition of cancer cell growth as measured by cell number, HL60", "type": "cell-based", "conditions": "Homo sapiens, HL-60; cell number, Sulforhodamine B, 48 hours exposure; Table 7; read-out: IC50 HL60"}, "CCRF-CFM": {"test_system": "CCRF-CFM", "assay": "Inhibition of cancer cell growth as measured by cell number, CCRF-CFM", "type": "cell-based", "conditions": "Homo sapiens; cell number, Sulforhodamine B, 48 hours exposure; Table 7; read-out: IC50 CCRF-CFM"}, "[3]": {"target": "epidermal growth factor receptor kinase (Homo sapiens, UniProt P00533)", "sequence (P00533 25-1210)": "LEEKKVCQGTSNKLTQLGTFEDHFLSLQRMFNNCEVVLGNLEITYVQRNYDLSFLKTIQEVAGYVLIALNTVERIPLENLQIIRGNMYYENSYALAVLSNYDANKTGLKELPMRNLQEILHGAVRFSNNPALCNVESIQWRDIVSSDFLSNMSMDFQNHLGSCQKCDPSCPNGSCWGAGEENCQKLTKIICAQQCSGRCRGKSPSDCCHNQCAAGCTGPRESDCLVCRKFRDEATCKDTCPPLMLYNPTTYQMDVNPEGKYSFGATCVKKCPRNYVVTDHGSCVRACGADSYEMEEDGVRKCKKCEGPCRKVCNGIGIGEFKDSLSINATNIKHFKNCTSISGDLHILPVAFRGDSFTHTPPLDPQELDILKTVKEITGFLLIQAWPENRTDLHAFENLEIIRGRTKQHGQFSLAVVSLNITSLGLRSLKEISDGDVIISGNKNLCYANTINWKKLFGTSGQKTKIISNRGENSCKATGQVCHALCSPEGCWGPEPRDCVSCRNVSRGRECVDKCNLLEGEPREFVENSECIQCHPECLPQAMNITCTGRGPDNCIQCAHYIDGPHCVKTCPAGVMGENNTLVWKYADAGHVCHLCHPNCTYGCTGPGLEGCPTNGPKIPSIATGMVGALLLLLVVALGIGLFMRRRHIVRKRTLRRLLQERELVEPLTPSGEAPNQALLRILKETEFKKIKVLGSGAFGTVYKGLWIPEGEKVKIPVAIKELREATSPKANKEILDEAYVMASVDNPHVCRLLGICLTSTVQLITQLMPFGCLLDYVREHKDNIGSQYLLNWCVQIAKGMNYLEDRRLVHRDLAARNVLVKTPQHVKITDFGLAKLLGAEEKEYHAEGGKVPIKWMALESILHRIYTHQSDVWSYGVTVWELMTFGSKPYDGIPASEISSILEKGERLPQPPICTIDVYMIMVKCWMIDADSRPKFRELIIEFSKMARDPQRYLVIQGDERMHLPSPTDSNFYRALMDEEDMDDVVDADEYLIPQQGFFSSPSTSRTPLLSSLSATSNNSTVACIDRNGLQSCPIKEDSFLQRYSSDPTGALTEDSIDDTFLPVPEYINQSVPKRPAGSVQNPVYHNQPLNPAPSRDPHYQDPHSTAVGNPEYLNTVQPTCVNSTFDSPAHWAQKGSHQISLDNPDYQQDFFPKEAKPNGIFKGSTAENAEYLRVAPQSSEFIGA", "assay": "biochemical"}}, "data": [{"compound": "CC#CC(=O)Nc1ccc2ncc(C#N)c(Nc3ccc(Br)c(Br)c3)c2c1", "note": "[Example 22, N-[4-[(3,4-dibromophenyl)amino]-3-cyano-6-quinolinyl]-2-butynamide]", "values": [{"measurement": "IC50", "setting": "A431 [1]", "value": 150, "unit": "nM"}, {"measurement": "IC50", "setting": "NEU-3T3", "value": "> 50000", "unit": "nM"}, {"measurement": "IC50", "setting": "NHEK", "value": 35, "unit": "nM"}, {"measurement": "IC50", "setting": "SKBR3", "value": "> 50000", "unit": "nM"}, {"measurement": "IC50", "setting": "HTB161", "value": 0.248, "unit": "µg/mL"}, {"measurement": "IC50", "setting": "A27805", "value": 0.0567, "unit": "µg/mL"}, {"measurement": "IC50", "setting": "A2780DDP", "value": 0.211, "unit": "µg/mL"}, {"measurement": "IC50", "setting": "MIP", "value": 0.378, "unit": "µg/mL"}, {"measurement": "IC50", "setting": "SW620", "value": 0.526, "unit": "µg/mL"}, {"measurement": "IC50", "setting": "COLO205", "value": 4.3, "unit": "µg/mL"}, {"measurement": "IC50", "setting": "CX1", "value": 0.775, "unit": "µg/mL"}, {"measurement": "IC50", "setting": "CACO2", "value": 0.475, "unit": "µg/mL"}, {"measurement": "IC50", "setting": "HCT15", "value": 0.372, "unit": "µg/mL"}, {"measurement": "IC50", "setting": "LS174T", "value": 0.847, "unit": "µg/mL"}, {"measurement": "IC50", "setting": "SW948", "value": 0.593, "unit": "µg/mL"}, {"measurement": "IC50", "setting": "CCL228", "value": 0.255, "unit": "µg/mL"}, {"measurement": "IC50", "setting": "B7474", "value": 0.314, "unit": "µg/mL"}, {"measurement": "IC50", "setting": "T47D", "value": 0.704, "unit": "µg/mL"}, {"measurement": "IC50", "setting": "LX1", "value": 0.81, "unit": "µg/mL"}, {"measurement": "IC50", "setting": "A549", "value": 0.375, "unit": "µg/mL"}, {"measurement": "IC50", "setting": "LOX", "value": 0.0225, "unit": "µg/mL"}, {"measurement": "IC50", "setting": "A431 [2]", "value": 0.0443, "unit": "µg/mL"}, {"measurement": "IC50", "setting": "NEC", "value": 0.492, "unit": "µg/mL"}, {"measurement": "IC50", "setting": "DU145", "value": 0.265, "unit": "µg/mL"}, {"measurement": "IC50", "setting": "PC3", "value": 0.695, "unit": "µg/mL"}, {"measurement": "IC50", "setting": "LNCAP", "value": 0.722, "unit": "µg/mL"}, {"measurement": "IC50", "setting": "HL60", "value": 0.608, "unit": "µg/mL"}, {"measurement": "IC50", "setting": "CCRF-CFM", "value": 0.403, "unit": "µg/mL"}, {"measurement": "IC50", "setting": "[3]", "value": 3000, "unit": "nM"}]}]}
